Source: patent EP1202975B1, “SUBSTITUTED POLYCYCLIC ARYL AND HETEROARYL PYRAZINONES USEFUL FOR SELECTIVE INHIBITION OF THE COAGULATION CASCADE” (Pharmacia Corporation, priority 1999, dated 2000)
pIC50: −log10 of the molar value. Where two headings read alike, the source gives them in different places.

Legend:
TF-VIIa = target: T1, TF-VIIa (Homo sapiens, UniProt P08709); assay: TF-VIIa Assay; assay type: biochemical
T1 construct: 2nM recombinant human factor VIIa; purchased American Diagnostica, Greenwich CT; host or cells: soluble TF made in house in E. coli
T1 sequence (P08709 213-466 limits assumed): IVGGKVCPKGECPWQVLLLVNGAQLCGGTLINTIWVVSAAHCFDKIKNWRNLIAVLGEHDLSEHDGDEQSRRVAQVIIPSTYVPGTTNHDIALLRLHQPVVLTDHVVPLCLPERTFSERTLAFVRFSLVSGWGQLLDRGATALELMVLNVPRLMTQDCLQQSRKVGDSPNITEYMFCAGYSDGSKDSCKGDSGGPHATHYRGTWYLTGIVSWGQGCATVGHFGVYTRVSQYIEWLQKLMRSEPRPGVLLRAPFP
T1 sequence (P08709 61-212 limits assumed): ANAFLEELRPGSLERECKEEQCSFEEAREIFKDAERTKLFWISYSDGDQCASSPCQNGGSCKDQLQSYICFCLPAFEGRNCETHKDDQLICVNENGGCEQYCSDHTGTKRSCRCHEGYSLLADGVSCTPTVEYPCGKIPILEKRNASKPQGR
T1 sequence (P13726 33-251 partner limits assumed): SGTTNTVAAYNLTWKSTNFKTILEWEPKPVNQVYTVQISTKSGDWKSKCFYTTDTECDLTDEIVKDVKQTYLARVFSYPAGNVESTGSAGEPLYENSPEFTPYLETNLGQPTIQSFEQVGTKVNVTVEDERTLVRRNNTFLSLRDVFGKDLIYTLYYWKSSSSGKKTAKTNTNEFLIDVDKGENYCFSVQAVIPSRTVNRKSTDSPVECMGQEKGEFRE

Human factor Xa = Human factor Xa (Homo sapiens, UniProt P00742)
Chain of Human factor Xa (P00742 235-488 limits assumed): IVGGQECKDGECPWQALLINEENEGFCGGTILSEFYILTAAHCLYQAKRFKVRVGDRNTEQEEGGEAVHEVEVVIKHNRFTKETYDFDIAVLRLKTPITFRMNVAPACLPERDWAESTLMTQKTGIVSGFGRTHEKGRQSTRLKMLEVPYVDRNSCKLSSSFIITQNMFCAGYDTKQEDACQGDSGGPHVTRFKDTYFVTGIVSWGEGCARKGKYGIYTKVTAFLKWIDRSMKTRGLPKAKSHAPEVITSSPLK
Chain of Human factor Xa (P00742 41-179 limits assumed): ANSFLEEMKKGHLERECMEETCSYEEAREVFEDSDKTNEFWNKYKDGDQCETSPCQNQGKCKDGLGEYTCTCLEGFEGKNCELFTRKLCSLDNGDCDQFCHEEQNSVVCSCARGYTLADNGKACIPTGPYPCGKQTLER

[1] = cells given as a plain number (IC50); read-out: IC50 or % Inhibition TF-VIIa (30 µM)
[2] = read-out: IC50 or % Inhibition TF-VIIa (30 µM); cells given as a plain number (IC50)

Row | SMILES | IC50 or % Inhibition Factor Xa (30 µM) (Human factor Xa) [%] | % Inhibition TF-VIIa (100 µM) (TF-VIIa; 100 µM) [%] | also measured
1 | COc1ccc(-c2c(Cl)nc(NCc3ccncc3)c(=O)n2CC(=O)NCc2ccc(C(=N)N)cc2)cc1 [1471-35] | 22 |  | IC50 or % Inhibition TF-VIIa (30 µM) (TF-VIIa): 37%
2 | O=C(Cn1c(-c2ccc(-c3ccccc3)cc2)c(Cl)nc(NCCc2ccc(Cl)cc2)c1=O)NCCc1cccnc1 [Example E-0119] |  |  | % Inhibition Factor Xa (100 µM) (Human factor Xa): 5%
3 | N=C(N)c1ccc(CNC(=O)Cn2c(-c3ccccc3)c(Cl)nc(NCCCc3ccccc3)c2=O)cc1 [1512-06] | 4 |  | pIC50 (TF-VIIa; [1]): 4.90
4 | N=C(N)c1ccc(CNC(=O)Cn2c(-c3cccc(N)c3)c(Cl)nc(NC3CCCC3)c2=O)c(F)c1 [1543-34] | 20 |  | pIC50 (TF-VIIa; read-out: IC50 or % Inhibition TF-VIIa (30 µM); cells without % sign: IC50): 7.10
5 | O=C(Cn1c(-c2ccc3c(c2)OCO3)c(Cl)nc(NCCc2ccc(Cl)cc2)c1=O)NCCc1ccncc1 [Example E-0044] |  |  | % Inhibition TF-VIIa (100 µM) (TF-VIIa): 0%; % Inhibition Factor Xa (100 µM) (Human factor Xa): 0%
6 | N=C(N)c1ccc(CNC(=O)Cn2c(-c3ccccc3)c(Cl)nc(NCCCn3ccnc3)c2=O)cc1 [1507-05] | 10 |  | pIC50 (TF-VIIa; [2]): 5.33
7 | O=C(Cn1c(-c2ccc3c(c2)OCO3)c(Cl)nc(NCc2ccncc2)c1=O)NCCc1ccncc1 [Example E-0048] |  |  | % Inhibition TF-VIIa (100 µM) (TF-VIIa): 0%; % Inhibition Factor Xa (100 µM) (Human factor Xa): 0%
8 | O=C(Cn1c(-c2ccc(-c3ccccc3)cc2)c(Cl)nc(NCc2ccccc2)c1=O)NCCc1cccnc1 [Example E-0110] |  |  | % Inhibition TF-VIIa (100 µM) (TF-VIIa): 0%; % Inhibition Factor Xa (100 µM) (Human factor Xa): 3%
9 | C[C@H](C(=O)NCc1ccc(C(=N)N)cc1)n1c(-c2ccccc2)c(Cl)nc(NCCc2ccccc2)c1=O [1517-17] | 0 |  | pIC50 (TF-VIIa; [2]): 5.74
10 | N=C(N)c1ccc(CNC(=O)Cn2c(-c3ccc4c(c3)OCO4)c(Cl)nc(NCCc3cccc(Cl)c3)c2=O)cc1 [1471-46] | 21 |  | pIC50 (TF-VIIa; [2]): 4.89
11 | N=C(N)c1ccc(CNC(=O)Cn2c(-c3cccc(Cl)c3)c(Cl)nc(NCc3ccncc3)c2=O)cc1 [1471-27] | 16 |  | pIC50 (TF-VIIa; [2]): 5.38
12 | N=C(N)c1ccc(CNC(=O)Cn2c(-c3ccccc3)c(Cl)nc(NCC(c3ccccc3)c3ccccc3)c2=O)cc1 [1507-09] | 13 |  | pIC50 (TF-VIIa; [2]): 4.65
13 | CNc1nc(Cl)c(-c2cccc(N)c2)n(CC(=O)NCc2ccc(C(=N)N)cc2)c1=O [1543-05] | 14 |  | pIC50 (TF-VIIa; cells without % sign: IC50; read-out: IC50 or % Inhibition TF-VIIa (30 µM)): 7.22
14 | N=C(N)c1ccc(CNC(=O)Cn2c(-c3ccc(Cl)cc3)c(Cl)nc(NCCN3CCOCC3)c2=O)cc1 [1471-20] | 34 |  | IC50 or % Inhibition TF-VIIa (30 µM) (TF-VIIa): 42%
15 | N=C(N)c1ccc(CNC(=O)Cn2c(-c3ccccc3)c(Cl)nc(NCCc3ccc(Cl)cc3)c2=O)cc1 [1471-10] | 45 |  | pIC50 (TF-VIIa; [1]): 6.22
16 | N=C(N)c1ccc(CNC(=O)Cn2c(-c3ccccc3)c(Cl)nc(NCc3cc(C(F)(F)F)cc(C(F)(F)F)c3)c2=O)cc1 [1507-40] | 11 |  | pIC50 (TF-VIIa; [2]): 5.24
17 | Cc1c(Cl)nc(NCCN2CCOCC2)c(=O)n1CC(=O)NCc1ccc(C(=N)N)cc1 [1471-4] | 0 |  | pIC50 (TF-VIIa; [2]): 4.53
18 | N=C(N)c1ccc(CNC(=O)Cn2c(-c3c(Cl)cccc3Cl)c(Cl)nc(NC3CCC3)c2=O)cc1 [1517-12] | 0 |  | pIC50 (TF-VIIa; [2]): 6.10
19 | COc1ccc(-c2c(Cl)nc(NCc3ccccc3)c(=O)n2CC(=O)NCCc2ccncc2)cc1 [Example E-0097] |  |  | % Inhibition TF-VIIa (100 µM) (TF-VIIa): 0%; % Inhibition Factor Xa (100 µM) (Human factor Xa): 3%
20 | CSCC(C(=O)NCc1ccc(C(=N)N)cc1)n1c(-c2ccccc2)c(Cl)nc(NCc2ccccc2)c1=O (stereo not drawn) [1517-04] | 0 |  | pIC50 (TF-VIIa; [2]): 5.24
21 | N=C(N)c1ccc(CNC(=O)Cn2c(-c3ccc4c(c3)OCO4)c(Cl)nc(NCCN3CCOCC3)c2=O)cc1 [1471-44] | 13 |  | IC50 or % Inhibition TF-VIIa (30 µM) (TF-VIIa): 34%
22 | N=C(N)c1ccc(CNC(=O)Cn2c(-c3ccccc3)c(Cl)nc(NCc3ccccn3)c2=O)cc1 [1507-24] | 15 |  | IC50 or % Inhibition TF-VIIa (30 µM) (TF-VIIa): 0%
23 | CCc1c(Cl)nc(NCc2ccncc2)c(=O)n1CC(=O)NCc1ccc(C(=N)N)cc1 [1471-59] | 0 |  | pIC50 (TF-VIIa; [2]): 5.12
24 | CN(C)CCCNc1nc(Cl)c(-c2ccccc2)n(CC(=O)NCc2ccc(C(=N)N)cc2)c1=O [1507-47] | 19 |  | pIC50 (TF-VIIa; [1]): 4.75
25 | CCc1c(Cl)nc(NCCc2ccccc2)c(=O)n1CC(=O)NCc1ccc(C(=N)N)cc1 [1471-63] | 2 |  | pIC50 (TF-VIIa; [1]): 5.46
26 | N=C(N)c1ccc(CNC(=O)Cn2c(-c3ccc(-c4ccccc4)cc3)c(Cl)nc(NCCc3cccc(Cl)c3)c2=O)cc1 [1471-70] | 12 |  | IC50 or % Inhibition TF-VIIa (30 µM) (TF-VIIa): 10%

Row | SMILES | IC50 or % Inhibition Factor Xa (30 µM) (Human factor Xa) [%] | % Inhibition TF-VIIa (100 µM) (TF-VIIa; 100 µM) [%] | also measured
27 | O=C(Cn1c(-c2ccc(-c3ccccc3)cc2)c(Cl)nc(NCCN2CCOCC2)c1=O)NCCc1ccncc1 [Example E-0055] |  |  | % Inhibition TF-VIIa (100 µM) (TF-VIIa): 0%; % Inhibition Factor Xa (100 µM) (Human factor Xa): 0%
28 | O=C(Cn1c(-c2ccc(Cl)cc2)c(Cl)nc(NCCc2cccnc2)c1=O)NCCc1ccncc1 [Example E-0029] |  | 0 | 
29 | O=C(Cn1c(-c2cccc(Cl)c2)c(Cl)nc(NCCc2cccc(Cl)c2)c1=O)NCCc1ccncc1 [Example E-0079] |  | 0 | 
30 | O=C(Cn1c(-c2cccc(Cl)c2)c(Cl)nc(NCCc2ccc(Cl)cc2)c1=O)NCCc1ccncc1 [Example E-0082] |  | 4 | 
31 | O=C(Cn1c(-c2cccc(Cl)c2)c(Cl)nc(NCCc2ccc(Cl)cc2)c1=O)NCCc1ccncc1 [Example E-0094] |  | 2 | 
32 | O=C(Cn1c(-c2ccc(Cl)cc2)c(Cl)nc(NCc2ccncc2)c1=O)NCCc1ccncc1 [Example E-0032] |  | 0 | 
33 | O=C(Cn1c(-c2ccc(Cl)cc2)c(Cl)nc(NCCc2ccc(Cl)cc2)c1=O)NCCc1ccncc1 [Example E-0028] |  | 0 | 
34 | N=C(N)c1ccc(CNC(=O)Cn2c(-c3ccccc3)c(Cl)nc(NCCc3cccc(Cl)c3)c2=O)cc1 [1471-14] |  |  | pIC50 (TF-VIIa; [1]): 6.74
35 | O=C(Cn1c(-c2cccc(Cl)c2)c(Cl)nc(NCCc2ccccc2)c1=O)NCCc1cccnc1 [Example E-0089] |  | 3 | 
36 | NCc1ccc(CNC(=O)Cn2c(-c3cccc(N)c3)c(Cl)nc(NC3CCC3)c2=O)cc1 [Example 28] |  |  | pIC50 (TF-VIIa; [1]): 5.52
37 | O=C(Cn1c(-c2cccc(Cl)c2)c(Cl)nc(NCc2ccccc2)c1=O)NCCc1cccnc1 [Example E-0086] |  | 0 | 
38 | O=C(Cn1c(-c2ccc(-c3ccccc3)cc2)c(Cl)nc(NCCc2ccccc2)c1=O)NCCc1ccncc1 [Example E-0050] |  | 0 | 
39 | O=C(Cn1c(-c2ccc(-c3ccccc3)cc2)c(Cl)nc(NCCc2cccc(Cl)c2)c1=O)NCCc1cccnc1 [Example E-0116] |  |  | % Inhibition Factor Xa (100 µM) (Human factor Xa): 4%
40 | O=C(Cn1c(-c2ccc(Cl)cc2)c(Cl)nc(NCCc2ccccc2)c1=O)NCCc1ccncc1 [Example E-0026] |  | 0 | 
41 | O=C(Cn1c(-c2ccc(Cl)cc2)c(Cl)nc(NCCc2ccncc2)c1=O)NCCc1ccncc1 [Example E-0030] |  | 0 | 
42 | O=C(Cn1c(-c2cccc(Cl)c2)c(Cl)nc(NCCc2ccc(Cl)cc2)c1=O)NCCc1cccnc1 [Example E-0095] |  | 2 | 
43 | O=C(Cn1c(-c2cccc(Cl)c2)c(Cl)nc(NCc2ccccc2)c1=O)NCCc1cccnc1 [Example E-0074] |  | 0 | 
44 | O=C(Cn1c(-c2ccc(Cl)cc2)c(Cl)nc(NCCc2ccncc2)c1=O)NCCc1ccncc1 [Example E-0022] |  | 0 | 
45 | O=C(Cn1c(-c2ccc(Cl)cc2)c(Cl)nc(NCCc2ccc(Cl)cc2)c1=O)NCCc1ccncc1 [Example E-0020] |  | 0 | 
46 | O=C(Cn1c(-c2ccc(-c3ccccc3)cc2)c(Cl)nc(NCc2ccccc2)c1=O)NCCc1ccncc1 [Example E-0109] |  | 2 | 
47 | Nc1cccc(-c2c(Cl)nc(NC3CCC3)c(=O)n2CC(=O)NCc2ccc(C3=NCCN3)cc2)c1 [Example 27] |  |  | pIC50 (TF-VIIa; [1]): 4.90
48 | O=C(Cn1c(-c2ccc(Cl)cc2)c(Cl)nc(NCc2ccncc2)c1=O)NCCc1ccncc1 [Example E-0024] |  | 0 | 
49 | O=C(Cn1c(-c2cccc(Cl)c2)c(Cl)nc(NCc2ccccc2)c1=O)NCCc1ccncc1 [Example E-0073] |  | 0 | 
50 | COc1ccc(-c2c(Cl)nc(NCCc3cccc(Cl)c3)c(=O)n2CC(=O)NCCc2ccncc2)cc1 [Example E-0035] |  | 4 | 
51 | O=C(Cn1c(-c2ccc(Cl)cc2)c(Cl)nc(NCc2ccccc2)c1=O)NCCc1ccncc1 [Example E-0017] |  | 0 | 
52 | COc1ccc(-c2c(Cl)nc(NCCc3ccc(Cl)cc3)c(=O)n2CC(=O)NCCc2ccncc2)cc1 [Example E-0036] |  | 0 | 
